# Assay results published in US11053248B2, “[1,2,4]triazolo[1,5-a]pyrimidine compounds as PDE2 inhibitors” (Janssen Pharmaceutica NV, priority 2016, dated 2021).
# Like-named read-outs stand apart in the source and are kept apart here.
# Legend:
# hPDE2A = biological target: T1, hPDE2A (Homo sapiens, UniProt O00408); assay: In vitro assay PDE2A (SPA, 3H-cGMP); format: biochemical; details: for Emax: read-out: hPDE2A Emax
# T1 construct: made in house; host or cells: Sf9 insect cells (baculovirus)
# T1 sequence (O00408 whole entry): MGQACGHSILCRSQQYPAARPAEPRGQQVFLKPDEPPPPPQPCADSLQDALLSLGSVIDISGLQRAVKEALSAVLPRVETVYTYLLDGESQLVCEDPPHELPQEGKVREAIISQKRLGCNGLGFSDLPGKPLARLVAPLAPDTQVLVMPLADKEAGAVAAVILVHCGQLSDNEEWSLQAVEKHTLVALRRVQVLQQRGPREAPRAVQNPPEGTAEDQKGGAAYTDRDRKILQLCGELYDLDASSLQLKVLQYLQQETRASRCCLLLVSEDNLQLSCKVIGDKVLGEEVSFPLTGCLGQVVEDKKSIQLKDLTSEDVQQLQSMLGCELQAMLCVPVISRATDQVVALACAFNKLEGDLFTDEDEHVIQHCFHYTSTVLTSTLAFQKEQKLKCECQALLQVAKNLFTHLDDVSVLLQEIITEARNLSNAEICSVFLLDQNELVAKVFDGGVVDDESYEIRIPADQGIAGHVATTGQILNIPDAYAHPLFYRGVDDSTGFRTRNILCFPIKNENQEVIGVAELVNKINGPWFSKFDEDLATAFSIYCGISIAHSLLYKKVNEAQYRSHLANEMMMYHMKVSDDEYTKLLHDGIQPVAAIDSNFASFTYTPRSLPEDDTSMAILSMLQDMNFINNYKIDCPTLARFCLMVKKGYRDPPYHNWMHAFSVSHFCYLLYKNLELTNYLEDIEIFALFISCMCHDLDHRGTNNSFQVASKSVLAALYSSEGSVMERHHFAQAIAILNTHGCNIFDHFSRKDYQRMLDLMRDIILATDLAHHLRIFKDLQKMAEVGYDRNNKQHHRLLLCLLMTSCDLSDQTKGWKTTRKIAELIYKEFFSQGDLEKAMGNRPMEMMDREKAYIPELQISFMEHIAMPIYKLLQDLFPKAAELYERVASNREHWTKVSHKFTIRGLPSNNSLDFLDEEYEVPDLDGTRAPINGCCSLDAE
# Procedure: Human recombinant PDE2A (hPDE2A) was expressed in Sf9 cells using a recombinant rPDE10A baculovirus construct. Cells were harvested after 48 h of infection and the hPDE2A protein was purified by metal chelate chromatography on Ni-sepharose 6FF. Tested compounds were dissolved and diluted in 100% DMSO to a concentration 100 fold of the final concentration in the assay. Compound dilutions (0.4 μl) were added in 384 well plates to 20 μl of incubation buffer (50 mM Tris pH 7.8, 8.3 mM MgCl2, 1.7 mM EGTA). 10 μl of hPDE2A enzyme in incubation buffer was added and the reaction was started by addition of 10 μl substrate to a final concentration of 10 μM cGMP and 0.01 μCi ^3H-cGMP. The reaction was incubated for 45 minutes at room temperature. […] After sedimentation of the beads during 30 minutes the radioactivity was measured in a Perkin Elmer Topcount scintillation counter and results were expressed as cpm. For blanc values the enzyme was omitted from the reaction and replaced by incubation buffer. Control values were obtained by addition of a final concentration of 1% DMSO instead of compound.
# hPDE10A2 = hPDE10A2 (Homo sapiens, UniProt Q9Y233); assay: biochemical; details: for IC50: 60 nM cAMP substrate, read-out: hPDE10A2 pIC50 (converted); for Emax: read-out: hPDE10A2 Emax
# Sequence of hPDE10A2 (Q9Y233 267-1055): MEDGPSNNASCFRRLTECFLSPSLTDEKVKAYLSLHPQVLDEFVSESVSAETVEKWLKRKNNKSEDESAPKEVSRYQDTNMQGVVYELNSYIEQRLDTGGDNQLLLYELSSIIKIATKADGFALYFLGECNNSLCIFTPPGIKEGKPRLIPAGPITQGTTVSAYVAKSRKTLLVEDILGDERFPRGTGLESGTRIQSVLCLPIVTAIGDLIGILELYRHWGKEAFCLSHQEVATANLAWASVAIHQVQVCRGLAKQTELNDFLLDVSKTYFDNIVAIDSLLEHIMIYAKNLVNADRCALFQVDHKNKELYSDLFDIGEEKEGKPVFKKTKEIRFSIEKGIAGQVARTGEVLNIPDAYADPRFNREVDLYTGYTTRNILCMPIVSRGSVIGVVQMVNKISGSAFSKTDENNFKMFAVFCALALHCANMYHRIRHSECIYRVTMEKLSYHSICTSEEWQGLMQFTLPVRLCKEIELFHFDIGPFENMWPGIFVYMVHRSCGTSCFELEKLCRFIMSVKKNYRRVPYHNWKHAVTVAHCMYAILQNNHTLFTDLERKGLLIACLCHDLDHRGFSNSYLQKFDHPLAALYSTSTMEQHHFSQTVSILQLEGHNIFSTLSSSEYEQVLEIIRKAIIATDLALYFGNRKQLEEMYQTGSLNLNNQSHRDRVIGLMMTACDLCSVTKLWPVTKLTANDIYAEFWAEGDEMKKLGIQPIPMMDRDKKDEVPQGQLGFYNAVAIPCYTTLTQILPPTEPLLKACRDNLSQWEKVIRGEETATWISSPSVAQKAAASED
# Procedure: Rat recombinant PDE10A (rPDE10A2) was expressed in Sf9 cells using a recombinant rPDE10A baculovirus construct. Cells were harvested after 48 h of infection and the rPDE10A protein was purified by metal chelate chromatography on Ni-sepharose 6FF. Tested compounds were dissolved and diluted in 100% DMSO to a concentration 100 fold of the final concentration in the assay. Human recombinant PDE10A […] was expressed in Sf9 cells using a recombinant hPDE10A baculovirus that was made and amplified in house. Cells were harvested after 72 h of infection and the hPDE10A protein was purified by metal chelate chromatography on Ni-sepharose. Compound dilutions (0.4 μl) were added in 384 well plates to 20 μl of incubation buffer (50 mM Tris pH 7.8, 8.3 mM MgCl2, 1.7 mM EGTA). […] of rPDE10A or hPDE10A enzyme in incubation buffer was added and the reaction was started by addition of 10 μl substrate to a final concentration of 60 nM cAMP and 0.008 μCi ^3H-cAMP. The reaction was incubated for 60 minutes at room temperature. […] After sedimentation of the beads during 30 minutes the radioactivity was measured in a Perkin Elmer Topcount scintillation counter and results were expressed as cpm. For blanc values the enzyme was omitted from the reaction and replaced by incubation buffer. Control values were obtained by addition of a final concentration of 1% DMSO instead of compound.
# hPDE3B = assay: In vitro assay PDE3 (SPA, 3H-cAMP); format: biochemical, human; set-up: hPDE3B Emax: unit not given here; details: for hPDE3B pIC50: 0.4 μM cAMP substrate
# PDE2A = biological target: T2, PDE2A (Rattus norvegicus, UniProt Q01062); assay: PDE2 occupancy by ex-vivo autoradiography with [3H]B-17a; format: in vivo; details: for receptor occupancy at 10 mg/kg / ED50: rat; for ED50: read-out: PDE occupancy ED50, route PO (oral), male Wistar rats, dose producing 50% occupancy
# T2 construct: from tissue; host or cells: rat brain striatal sections (ex vivo)
# T2 sequence (Q01062 1-928): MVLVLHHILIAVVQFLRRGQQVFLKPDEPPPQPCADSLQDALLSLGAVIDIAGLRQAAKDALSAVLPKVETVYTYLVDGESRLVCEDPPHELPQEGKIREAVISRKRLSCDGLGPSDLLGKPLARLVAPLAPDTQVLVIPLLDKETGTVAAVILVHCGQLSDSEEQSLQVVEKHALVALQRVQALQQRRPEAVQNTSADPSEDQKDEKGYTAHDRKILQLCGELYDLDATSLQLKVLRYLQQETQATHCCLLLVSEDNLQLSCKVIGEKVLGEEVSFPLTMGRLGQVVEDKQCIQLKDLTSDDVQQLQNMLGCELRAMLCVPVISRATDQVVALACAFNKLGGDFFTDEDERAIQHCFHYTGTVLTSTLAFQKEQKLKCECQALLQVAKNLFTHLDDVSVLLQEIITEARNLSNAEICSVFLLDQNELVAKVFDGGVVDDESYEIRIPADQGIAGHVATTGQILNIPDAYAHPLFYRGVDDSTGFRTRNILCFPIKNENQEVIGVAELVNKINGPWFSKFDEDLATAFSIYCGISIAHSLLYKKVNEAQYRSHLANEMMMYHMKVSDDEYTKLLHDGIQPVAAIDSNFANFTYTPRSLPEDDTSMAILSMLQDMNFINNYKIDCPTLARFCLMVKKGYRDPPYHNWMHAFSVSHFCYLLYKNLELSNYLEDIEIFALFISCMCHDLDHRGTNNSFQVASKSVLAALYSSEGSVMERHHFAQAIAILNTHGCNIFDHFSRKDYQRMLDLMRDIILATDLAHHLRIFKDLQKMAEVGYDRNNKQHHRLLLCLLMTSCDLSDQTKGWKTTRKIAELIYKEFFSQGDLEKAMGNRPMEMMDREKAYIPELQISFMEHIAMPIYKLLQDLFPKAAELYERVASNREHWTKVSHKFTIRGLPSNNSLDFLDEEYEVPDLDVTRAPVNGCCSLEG
# Procedure: PDE2 Occupancy by Test Compounds Methods
# Brains were immediately removed from the skull and rapidly frozen in dry-ice cooled 2-methylbutane (−40° C.).
# After thawing, sections were dried under a cold stream of air and incubated for one minute with 30 nM [^3H]B-17a in Tris-HCl (50 mM, pH7.4) containing 0.3% BSA. Brain sections from drug-treated and vehicle-treated animals were incubated in parallel. […] After incubation, the excess of [^3H]B-17a was washed off in ice-cold buffer 2 times 10 minutes, followed by a quick dip in distilled water. The sections were then dried under a stream of cold air.
# Brain sections were loaded in a β-imager (Biospace, Paris) for 4 h and radioactivity emerging from delineated brain area was quantified using the Beta vision program (Biospace, Paris). Specific binding was determined as the difference between total binding in the striatum and non-specific binding in the cerebellum. Percentage receptor occupancy of the drug administered to the animal corresponded to 100% minus the percentage receptor labeled in the treated animal. For the determination of ED50-values, the percentage of receptor occupancy was plotted against dose and the sigmoidal log dose-effect curve of best fit was calculated by non-linear regression analysis, using the GraphPad Prism program.
# [1] = route PO (oral), 10 mg/kg, male Wistar rats, striatum, percentage occupancy, read-out: PDE2 occupancy at 10 mg/kg
# [2] = sc, read-out: PDE2 occupancy at 10 mg/kg, route SC (subcutaneous), 10 mg/kg, male Wistar rats, striatum, percentage occupancy
# [3] = po, read-out: PDE2 occupancy at 10 mg/kg, route PO (oral), 10 mg/kg, male Wistar rats, striatum, percentage occupancy
SMILES,melting point [°C],IC50 (hPDE2A) [nM],Emax (hPDE2A) [%],IC50 (hPDE10A2) [nM],Emax (hPDE10A2) [%],hPDE3B Emax (hPDE3B),hPDE3B pIC50 (hPDE3B),receptor occupancy at 10 mg/kg (PDE2A; [1]) [%],receptor occupancy at 10 mg/kg (PDE2A; [2]) [%],receptor occupancy at 10 mg/kg (PDE2A; [3]) [%],ED50 (PDE2A; po) [mg/kg],"IC50 (hPDE2A; 10 μM cGMP substrate, read-out: hPDE2A pIC50 (converted)) [nM]","receptor occupancy at 10 mg/kg (PDE2A; po, read-out: PDE2 occupancy at 10 mg/kg) [%]","PDE2 occupancy at 10 mg/kg (PDE2A; route PO (oral), 10 mg/kg, male Wistar rats, striatum, percentage occupancy)","receptor occupancy at 10 mg/kg (PDE2A; route SC (subcutaneous), 10 mg/kg, male Wistar rats, striatum, percentage occupancy, read-out: PDE2 occupancy at 10 mg/kg) [%]"
C[C@H]1CCN(c2nccc3ccc(Br)cc23)C[C@@H]1c1cc(C(F)F)nc2ncnn12 [Compound 29],134.49,2950,8,2510,84,99,5.85,–,–,–,–,–,–,–,–
C[C@@H]1CCN(c2cc(C#N)ccn2)C[C@H]1c1cc(C(F)F)nc2ncnn12 [Compound 22],–,67.6,100,1150,90,82,5.5,0,–,–,–,–,–,–,–
C[C@@H]1CCN(c2nccc3[nH]ccc23)C[C@H]1c1cc(C(F)F)nc2ncnn12 [Compound 9],–,12.6,101,708,92,60,5.13,–,36,–,–,–,–,–,–
Cc1cc([C@@H]2CN(c3nccc4ccc(Br)cc34)CC[C@H]2C)n2ncnc2n1 [Compound 2],–,1.07,100,74.1,102,89,5.45,–,–,96,2.6,–,–,–,–
C[C@@H]1CCN(c2nccc3ccc(O)cc23)C[C@H]1c1cc(C(F)F)nc2ncnn12 [Compound 18],–,–,101,331,97,65,5.14,–,-6,–,–,25.1,–,–,–
C[C@@H]1CCN(c2ccnc3ccccc23)C[C@H]1c1cc(C(F)F)nc2ncnn12 [Compound 42],–,20.4,99,1230,91,70,5.27,–,–,–,–,–,-8,–,–
C[C@@H]1CCN(c2nccc3ccccc23)C[C@H]1c1cc(C(F)F)nc2ncnn12 [Compound 7],–,10.7,101,617,98,69,5.22,–,81,–,29,–,–,–,–
Cc1ccc(C#N)c(N2CC[C@@H](C)[C@H](c3cc(C(F)F)nc4ncnn34)C2)n1 [Compound 17],–,19.5,100,102,97,66,5.15,-18,–,–,–,–,–,–,–
Cc1cc([C@@H]2CN(c3nccc4ccc(Cl)cc34)CC[C@H]2C)n2ncnc2n1 [Compound 3],–,3.02,100,83.2,100,88,5.49,–,–,90,2.12,–,–,89,–
C[C@@H]1CCN(c2ncc(Cl)c3ccccc23)C[C@H]1c1cc(C(F)F)nc2ncnn12 [Compound 6],–,8.91,99,417,101,67,5.21,–,–,3,–,–,–,–,–
COc1cccc2c(N3CC[C@@H](C)[C@H](c4cc(C(F)F)nc5ncnn45)C3)nccc12.Cl [Compound 10],–,12.9,99,490,100,84,5.53,–,53,–,20,–,–,–,–
C[C@H]1CCN(c2nccc3occc23)C[C@@H]1c1cc(C(F)F)nc2ncnn12 [Compound 30],184.03,8510,9,> 10000,41,53,5.02,–,–,–,–,–,–,–,–
C[C@@H]1CCN(c2cc(I)ccn2)C[C@H]1c1cc(C(F)F)nc2ncnn12 [Compound 16],–,18.2,100,224,99,95,6.19,–,–,–,–,–,–,–,-14
